Test results: PMC8512764, “New 4-Aminoproline-Based Small Molecule Cyclopeptidomimetics as Potential Modulators of α4β1 Integrin” (Molecules, 2021)
Where two headings read alike, the source gives them in different places. *1 amine or outer side, *2 acyl side, *3 side chain or, on linkers, in order; H or OH if unused. Where a SMILES comes first, the peptide text is derived from it. Bridges are numbered along the chain shown (N, C = ends). [ ]: non-standard residue; d: D form. The star is where a group is joined. ξ: configuration not given here. ξPro(4ξ-NH2) = O=C(C1CC(N[*:3])CN1[*:1])[*:2]; X1 = O=C(Cc1ccc(N[*:1])cc1)[*:2]; NH(2-Me-phenyl) = Cc1ccccc1N*; CO = O=C([*:1])[*:2]

Columns and labels:
α4β1 integrin = molecular target: T1, α4β1 integrin (Homo sapiens, UniProt P05556+P13612); assay: Jurkat cell adhesion assay on VCAM-1-coated wells; type: cell-based; conditions: Jurkat cell adhesion to VCAM-1 (2 μg/mL); means ± SD, n = 3; tested 0.1 nM to 100 μM; read-out: EC50/IC50 (IC50 for compounds reducing cell adhesion)
T1 construct: Jurkat cells endogenously express α4β1 integrin; host or cells: Jurkat E6.1 cells
T1 sequence (P13612 34-1032): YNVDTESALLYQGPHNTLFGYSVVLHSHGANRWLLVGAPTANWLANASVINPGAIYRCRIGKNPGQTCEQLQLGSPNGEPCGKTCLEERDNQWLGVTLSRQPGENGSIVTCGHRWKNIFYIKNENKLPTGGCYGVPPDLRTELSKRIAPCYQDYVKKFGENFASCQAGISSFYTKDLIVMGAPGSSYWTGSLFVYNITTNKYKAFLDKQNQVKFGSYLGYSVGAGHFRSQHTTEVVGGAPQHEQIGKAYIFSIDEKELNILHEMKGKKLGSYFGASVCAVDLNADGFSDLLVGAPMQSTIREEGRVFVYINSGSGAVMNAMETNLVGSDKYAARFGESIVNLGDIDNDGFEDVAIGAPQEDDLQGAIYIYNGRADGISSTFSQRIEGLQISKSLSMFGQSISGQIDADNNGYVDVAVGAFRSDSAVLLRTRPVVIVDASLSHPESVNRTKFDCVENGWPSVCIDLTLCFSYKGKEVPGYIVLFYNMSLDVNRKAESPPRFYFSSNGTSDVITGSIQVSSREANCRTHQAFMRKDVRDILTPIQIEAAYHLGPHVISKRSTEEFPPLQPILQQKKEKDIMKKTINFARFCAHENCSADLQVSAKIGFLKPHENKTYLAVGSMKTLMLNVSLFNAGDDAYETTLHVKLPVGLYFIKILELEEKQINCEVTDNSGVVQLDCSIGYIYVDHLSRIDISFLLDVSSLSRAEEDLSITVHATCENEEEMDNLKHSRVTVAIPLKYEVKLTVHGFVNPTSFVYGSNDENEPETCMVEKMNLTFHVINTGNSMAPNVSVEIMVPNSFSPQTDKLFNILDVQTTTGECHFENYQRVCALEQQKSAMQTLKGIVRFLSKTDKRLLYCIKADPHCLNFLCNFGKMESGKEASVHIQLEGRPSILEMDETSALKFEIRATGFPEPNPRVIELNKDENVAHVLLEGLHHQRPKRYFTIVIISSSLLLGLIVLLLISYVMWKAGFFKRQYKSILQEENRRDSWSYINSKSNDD
T1 sequence (P05556 21-798): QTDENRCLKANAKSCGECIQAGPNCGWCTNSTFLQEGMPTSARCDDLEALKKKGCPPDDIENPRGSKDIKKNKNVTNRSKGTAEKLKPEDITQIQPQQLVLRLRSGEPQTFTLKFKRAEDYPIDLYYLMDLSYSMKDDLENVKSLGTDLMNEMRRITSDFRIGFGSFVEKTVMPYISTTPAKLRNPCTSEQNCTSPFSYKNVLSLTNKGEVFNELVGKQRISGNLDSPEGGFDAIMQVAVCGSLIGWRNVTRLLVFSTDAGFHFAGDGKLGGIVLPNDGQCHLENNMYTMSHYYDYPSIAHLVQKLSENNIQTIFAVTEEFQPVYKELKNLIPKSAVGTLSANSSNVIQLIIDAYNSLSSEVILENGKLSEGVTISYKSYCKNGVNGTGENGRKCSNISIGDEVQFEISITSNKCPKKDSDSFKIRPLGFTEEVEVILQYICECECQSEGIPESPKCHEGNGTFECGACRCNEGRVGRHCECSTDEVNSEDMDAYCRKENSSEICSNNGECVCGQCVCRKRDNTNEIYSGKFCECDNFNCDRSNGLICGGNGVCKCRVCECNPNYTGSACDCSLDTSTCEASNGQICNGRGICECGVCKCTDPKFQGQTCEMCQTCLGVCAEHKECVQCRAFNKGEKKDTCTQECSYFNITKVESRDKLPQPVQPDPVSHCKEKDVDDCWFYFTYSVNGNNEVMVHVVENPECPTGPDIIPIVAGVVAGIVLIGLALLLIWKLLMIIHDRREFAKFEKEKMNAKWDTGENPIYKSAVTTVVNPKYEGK
Description: To investigate the ability of the newly synthesized cyclopeptidomimetics 12–18 to recognize and bind α4β1 integrin, cell adhesion assays were performed on VCAM-1. The compounds were evaluated for their ability to interfere with α4β1 integrin-mediated cell adhesion by using Jurkat cells, which are known to constitutively express this integrin [46, 48, 49, 50, 51].
Jurkat E6.1 cells were purchased from American Type Culture Collection (ATCC, Rockville, MD, USA) and were routinely cultured in RPMI-1640 (LifeTechnologies, Milan, Italy) supplemented with 10% FBS (fetal bovine serum, Life Technologies) and 2 mM glutamine. Cells were kept at 37 °C under 5% CO2 humidified atmosphere. Jurkat cells are a widely used cell model to study potential agonist or antagonist ligands able to modulate integrin-mediated cell adhesion. Jurkat cells endogenously express α4β1 integrin [13].
The assays were performed as previously described. In brief, black 96 well plates were coated with VCAM-1 (2 μg/mL) overnight at 4 °C; then, non-specific hydrophobic binding sites were blocked with 1% BSA (bovine serum albumin, Sigma-Aldrich) in HBSS (Life Technologies) for 30 min at 37 °C. Jurkat cells were labelled with CellTracker green CMFDA (12.5 μM, Life Technolgies) and pre-incubated with various concentration (10^−4–10^−10 M) of each new cyclopeptidomimetic or with the vehicle (DMSO) for 30 min at 37 °C. Afterwards, Jurkat cells were plated on VCAM-1-coated wells and incubated for 30 min at 37 °C. Then, wells were washed three times with 1% BSA in HBSS and Jurkat cells were lysed with 0.5% Triton X-100 in PBS for 30 min at 4 °C. Green fluorescence (Ex485 nm/Em 535 nm) was measured in an EnSpire Multimode Plate Reader (PerkinElmer, Waltham, MA, USA). Experiments were performed in quadruplicate and repeated at least three times. The number of adherent cells was determined by comparison with a standard curve made with a known concentration of labelled Jurkat cells. Data analysis and IC50/EC50 values were calculated using GraphPad Prism 6.0 (GraphPad Software, San Diego, CA, USA).
The number of adherent cells was determined as described above.

[1] = amide bond, HATU/HOAt/collidine, DCM/DMF 15:1, 25.0 °C

Q: With `Cc1ccccc1NC(=O)Nc1ccc(CC(=O)N2CC3CC2C(=O)NC(CC(C)C)C(=O)NC(CC(=O)O)C(=O)NC(C(C)C)C(=O)NCC(=O)N3)cc1` (stereo not drawn) [Compound 12, c[(MPUPA)Amp-Leu-Asp-Val-Gly]] ({NH(2-Me-phenyl)-CO}-[X1][ξPro(4ξ-NH2)]LDVG; lactam 2-C; configuration not given here) as the molecule, how does the IC50 (α4β1 integrin) read?
A: > 100 µM

Q: With `Cc1ccccc1NC(=O)Nc1ccc(CC(=O)N2CC3CC2C(=O)NC(CC(C)C)C(=O)NC(CCC(=O)O)C(=O)NC(C(C)C)C(=O)NCC(=O)N3)cc1` (stereo not drawn) [Compound 13, c[(MPUPA)Amp-Leu-Glu-Val-Gly]] ({NH(2-Me-phenyl)-CO}-[X1][ξPro(4ξ-NH2)]LEVG; lactam 2-C; configuration not given here) as the molecule, how does the IC50 (α4β1 integrin) read?
A: > 100 µM

Q: Which IC50 (α4β1 integrin) does the source give for `Cc1ccccc1NC(=O)Nc1ccc(CC(=O)N2CC3CC2C(=O)NC(CC(C)C)C(=O)NC(CC(=O)O)C(=O)NC(C(C)C)C(=O)N3)cc1` (stereo not drawn) [Compound 14, c[(MPUPA)Amp-Leu-Asp-Val]] ({NH(2-Me-phenyl)-CO}-[X1][ξPro(4ξ-NH2)]LDV; lactam 2-C; configuration not given here) here?
A: > 100 µM

Q: Which IC50 (α4β1 integrin) does the source give for `Cc1ccccc1NC(=O)Nc1ccc(CC(=O)N2CC3CC2C(=O)NC(CC(C)C)C(=O)NC(CCC(=O)O)C(=O)NC(C(C)C)C(=O)N3)cc1` (stereo not drawn) [Compound 15, c[(MPUPA)Amp-Leu-Glu-Val]] ({NH(2-Me-phenyl)-CO}-[X1][ξPro(4ξ-NH2)]LEV; lactam 2-C; configuration not given here) here?
A: > 100 µM

Q: Which IC50 (α4β1 integrin) does the source give for `Cc1ccccc1NC(=O)Nc1ccc(CC(=O)N2CC3CC2C(=O)NC(C(C)C)C(=O)NC(CCC(=O)O)C(=O)NC(CC(C)C)C(=O)N3)cc1` (stereo not drawn) [Compound 17, c[(MPUPA)Amp-Val-Glu-Leu]] ({NH(2-Me-phenyl)-CO}-[X1][ξPro(4ξ-NH2)]VEL; lactam 2-C; configuration not given here) here?
A: > 100 µM

Q: With `Cc1ccccc1NC(=O)Nc1ccc(CC(=O)N2CC3CC2C(=O)NC(CCCNC(=N)N)C(=O)NCC(=O)NC(CC(=O)O)C(=O)N3)cc1` (stereo not drawn) [Compound 18, c[(MPUPA)Amp-Arg-Gly-Asp]] ({NH(2-Me-phenyl)-CO}-[X1][ξPro(4ξ-NH2)]RGD; lactam 2-C; configuration not given here) as the molecule, how does the IC50 (α4β1 integrin) read?
A: > 100 µM

Q: Which ring closure, isolated yield ([1]; from H-Asp(tBu)-Amp(MPUPA)-Arg(Pmc)-Gly-OH, 14-membered ring, 0.52 mM) does the source give for `Cc1ccccc1NC(=O)Nc1ccc(CC(=O)N2C[C@@H]3C[C@H]2C(=O)N[C@@H](CCCNC(=N)NS(=O)(=O)c2c(C)c(C)c4c(c2C)CCC(C)(C)O4)C(=O)NCC(=O)N[C@@H](CC(=O)OC(C)(C)C)C(=O)N3)cc1` [H-Asp(tBu)-Amp(MPUPA)-Arg(Pmc)-Gly-OH] here?
A: 43%

Q: For `Cc1ccccc1NC(=O)Nc1ccc(CC(=O)N2C[C@@H]3C[C@H]2C(=O)N[C@@H](C(C)C)C(=O)N[C@@H](CC(=O)OC(C)(C)C)C(=O)N[C@@H](CC(C)C)C(=O)N3)cc1` [H-Leu-Amp(MPUPA)-Val-Asp(tBu)-OH], which ring closure, isolated yield ([1]; from H-Leu-Amp(MPUPA)-Val-Asp(tBu)-OH, 14-membered ring, 0.78 mM) is on record?
A: 73%

Q: Which ring closure, isolated yield ([1]; from H-Leu-Amp(MPUPA)-Val-Glu(tBu)-OH, 14-membered ring, 0.74 mM) does the source give for `Cc1ccccc1NC(=O)Nc1ccc(CC(=O)N2C[C@@H]3C[C@H]2C(=O)N[C@@H](C(C)C)C(=O)N[C@@H](CCC(=O)OC(C)(C)C)C(=O)N[C@@H](CC(C)C)C(=O)N3)cc1` [H-Leu-Amp(MPUPA)-Val-Glu(tBu)-OH] here?
A: 73%

Q: Which ring closure, isolated yield ([1]; from H-Val-Amp(MPUPA)-Leu-Asp(tBu)-OH, 14-membered ring, 0.53 mM) does the source give for `Cc1ccccc1NC(=O)Nc1ccc(CC(=O)N2C[C@@H]3C[C@H]2C(=O)N[C@@H](CC(C)C)C(=O)N[C@@H](CC(=O)OC(C)(C)C)C(=O)N[C@@H](C(C)C)C(=O)N3)cc1` [H-Val-Amp(MPUPA)-Leu-Asp(tBu)-OH] here?
A: 69%

Q: For `Cc1ccccc1NC(=O)Nc1ccc(CC(=O)N2C[C@@H]3C[C@H]2C(=O)N[C@@H](CC(C)C)C(=O)N[C@@H](CCC(=O)OC(C)(C)C)C(=O)N[C@@H](C(C)C)C(=O)N3)cc1` [H-Val-Amp(MPUPA)-Leu-Glu(tBu)-OH], which ring closure, isolated yield ([1]; from H-Val-Amp(MPUPA)-Leu-Glu(tBu)-OH, 14-membered ring, 0.76 mM) is on record?
A: 65%

Q: For `Cc1ccccc1NC(=O)Nc1ccc(CC(=O)N2C[C@@H]3C[C@H]2C(=O)N[C@@H](CC(C)C)C(=O)N[C@@H](CC(=O)OC(C)(C)C)C(=O)N[C@@H](C(C)C)C(=O)NCC(=O)N3)cc1` [H-Val-Gly-Amp(MPUPA)-Leu-Asp(tBu)-OH], which ring closure, isolated yield ([1]; from H-Val-Gly-Amp(MPUPA)-Leu-Asp(tBu)-OH, 17-membered ring, 0.47 mM) is on record?
A: 88%
